Measurements as given in patent US10124008B2, “Use of inhibitors of acid sphingomyelinase to treat acquired and inherited retinal degenerations” (Wisconsin Alumni Research Foundation, priority 2014, dated 2018).
Entries after “also recorded” stand apart in the source; their conditions may differ.

Key:
Assay type in all cases: cell-based, porcine
[1] = test system: acetylated tubulin in polarized primary RPE; assay: Immunofluorescence staining of acetylated and tyrosinated tubulin; conditions: inhibitors 10 μM for 3 h, 48 h after A2E treatment
Experimental: ALEXAFLUOR secondary antibodies were used at 1:500 and rhodamine-phalloidin (Cytoskeleton, PHDR1) at 1:200. Filters were mounted under coverslips on glass slides under […] (Vector labs), sealed and visualized with Andor Revolution XD spinning disk confocal microscope using a 60×1.4 NA oil objective with identical exposures and gains for each antibody. Acetylated tubulin-labeled stable microtubules (≥5 μm in length) after nocodazole treatment were analyzed manually in the Surpass mode of Imaris (Bitplane).
(§1) We performed two initial screens: first, we compared the ability of functional inhibitors (fluoxetine and amitriptyline) with that of the lone structural ASMase inhibitor zoledronic acid in decreasing acetylated tubulin. Here, polarized RPE monolayers with or without A2E were treated with one of the three inhibitors (10 μM, 3 h). Desipramine as a positive control. At the end of the incubation period, cells were fixed and stained for acetylated tubulin, imaged and the amount of acetylated tubulin in the cells was quantified. Second, we evaluated three additional drugs (sertraline, astemizole and fexofenadine) for their abilities to increase autophagy in the RPE. Cells with or without bisretinoids were transfected with mRFP-GFP-LC3, starved to induce autophagy, treated with drugs and imaged as in FIG. 9D.

ceramide in primary RPE = assay: Immunofluorescence staining for ceramide; conditions: desipramine treatment
Experimental: ALEXAFLUOR secondary antibodies were used at 1:500 and rhodamine-phalloidin (Cytoskeleton, PHDR1) at 1:200. Filters were mounted under coverslips on glass slides under VECTASHIELD (Vector labs), sealed and visualized with Andor Revolution XD spinning disk confocal microscope using a 60×1.4 NA oil objective with identical exposures and gains for each antibody. Acetylated tubulin-labeled stable microtubules (≥5 μm in length) after nocodazole treatment were analyzed manually in the Surpass mode of Imaris (Bitplane).

primary RPE cells = assay: Live imaging of tandem fluorescent mRFP-GFP-LC3 (tfLC3), autophagic flux; conditions: RPE with A2E; 3 h drug incubation (TO901317 1 μM 20 h)
Experimental: RPE cells were transfected with EGFP-LC3 or tandem fluorescent mRFP-GFP-LC3 (Addgene) using the AMAXA NUCLEOFECTOR II (Lonza). Approximately 1.5 million cells and 5 μg of plasmid DNA were used for each transfection. Cells were plated either on serum-coated glass-bottom dishes (Mattek) or […] filters at confluence.
Andor IQ2 software was used for image acquisition and Imaris x64 (Bitplane) for image analysis. […] Trafficking data was collected from three separate transfections for a total of at least 12-30 movies captured for treatment. During image acquisition care was taken to maintain the same laser power, exposure and electron-multiplying gain settings. […] After background subtraction (using the background subtraction algorithm and identical automatic threshold for all images) and smoothing (Gaussian algorithm with identical threshold settings for all images), Spots and Tracks algorithms were used to identify vesicles and follow them through time and cell-space to obtain total track length and track displacement.
We used tandem fluorescent mRFP-GFP-LC3 (tfLC3) to monitor autophagy in primary RPE cells in real time.
as §1

[2] = test system: EGFP-LC3-labeled autophagosomes in primary RPE; assay: Live imaging of EGFP-LC3 autophagosome trafficking (spinning disk, Boolean gating); conditions: desipramine 10 μM for 3 h
Experimental: RPE cells were transfected with EGFP-LC3 or tandem fluorescent mRFP-GFP-LC3 (Addgene) using the AMAXA NUCLEOFECTOR II (Lonza). Approximately 1.5 million cells and 5 μg of plasmid DNA were used for each transfection. Cells were plated either on serum-coated glass-bottom dishes (Mattek) or TRANSWELL filters at confluence. Live imaging of autophagosome traffic and autophagic flux were performed on the Revolution XD spinning disk microscopy system (Andor) equipped with the Yokogawa CSU-X1 confocal spinning disk head, Nikon Eclipse Ti inverted microscope surrounded by an Okolab cage incubator, iXon x3 897 EM-CCD camera, Andor laser combiner with four solid state lasers at 405, 488, 561, and 640 nm and corresponding band-pass filter sets (Sutter), and ASI motorized stage with piezo-Z for rapid Z-stack acquisition. Andor IQ2 software was used for image acquisition and Imaris x64 (Bitplane) for image analysis. For live imaging, cells were serum starved for 2 h to induce autophagy and rapid z-stacks were acquired using the 100×1.49 NA Apo TIRF objective (Nikon) for ˜50 frames at 37° C. Trafficking data was collected from three separate transfections for a total of at least 12-30 movies captured for treatment. During image acquisition care was taken to maintain the same laser power, exposure and electron-multiplying gain settings. Trafficking analysis was carried out using the Spots and Tracks modules of the Imaris software (Liu et al., 2010). After background subtraction (using the background subtraction algorithm and identical automatic threshold for all images) and smoothing (Gaussian algorithm with identical threshold settings for all images), Spots and Tracks algorithms were used to identify vesicles and follow them through time and cell-space to obtain total track length and track displacement. […] Data were analyzed using either a two-tailed t-test or one-way ANOVA followed by Bonferroni or Dunnett's post-tests (GraphPad PRISM). Unless otherwise stated, data are presented as Mean±S.E.M. of ≥3 independent experiments, with 3 to 4 replicates per condition per experiment. […] Regions were defined by: minimum or maximum track length, minimum or maximum displacement and a slope of 0.5 (displacement divided by length). Tracks with slope <0.5 were taken as less straight (region 2) than those with slope of >0.5 (region 3). Tracks within each region are represented as a percent of total number of tracks in Tables 1 and 2. One-way ANOVA or t-tests were used to compare regions between treatment groups. […] To examine the efficiency of autophagosome transport, Spots and Tracks algorithms in Imaris were used to calculate how far each autophagosome traveled (track displacement length) as a function of the movement required to travel that distance (total track length) (Liu et al., 2010).

[3] = test system: CD59 on polarized primary RPE; assay: Surface CD59 staining; conditions: RPE with A2E; short treatment with desipramine
Experimental: AlexaFluor secondary antibodies were used at 1:500. Filters were mounted under coverslips on glass slides under VECTASHIELD (Vector labs), sealed and visualized with Andor Revolution XD spinning disk confocal microscope using 60×1.4 NA or 100×1.49 NA oil objectives with identical exposures and gains for each antibody. Quantification of surface CD59 staining was performed using Imaris.

[4] = test system: acid sphingomyelinase (ASMase); assay: ASMase activity in primary RPE (sphingomyelinase fluorimetric assay kit); conditions: desipramine 10 μM for 3 hours
Experimental: Cells were harvested by trypsinization and cell pellets were washed with PBS to remove residual medium. Cells were lysed in HNTG lysis buffer (50 mM Hepes, pH 7.4, 150 mM NaCl, 10% glycerol, 1.5 mM MgCl2, 1% triton X-100) supplemented with protease inhibitors. Total protein was measured using the DC protein assay kit (BioRad). Cellular cholesterol was quantified using the Amplex Red cholesterol assay kit (INVITROGEN) as detailed previously (Lakkaraju et al., 2007). Single eyecups from wild-type and ABCA4^−/− mice were homogenized in 50 μl of lysis buffer and processed as above. For measuring acid sphingomyelinase activity, cells were lysed in acidic pH and assays were performed using the sphingomyelinase fluorimetric assay kit from Cayman Chemicals according to the manufacturer's protocol.

[5] = percent of total EGFP-LC3 tracks, serum-starved RPE

## CNCCCN1c2ccccc2CCc2ccccc21 [desipramine]
[1]
  acetylated tubulin in RPE with A2E: decreased acetylated tubulin in cells with A2E
Ceramide in primary RPE
  ceramide levels: decreased ASMase activity and ceramide levels
Primary RPE cells
  autophagic flux / autophagosome-lysosome fusion (tfLC3 EGFP:mRFP): corrected defects in autophagosome-lysosome fusion; also recorded: completely reversed the autophagic block induced by A2E
[2]; RPE cells with A2E
  number of motile tracks and long-range displacement of autophagosomes: increased both the number of motile tracks and long-range displacement of autophagosomes
[2]; [5]
  Region 1 (R1) (D <2.5 μm, L <10 μm): 84.28%
  Region 3 (R3) (L >10 μm, Slope >0.5 μm): 7.93%
[3]
  surface CD59 levels: increased surface CD59 levels
[4]
  ASMase activity: decreased ASMase activity and ceramide levels
